# Like-named read-outs stand apart in the source and are kept apart here.
# Legend:
# Format in all cases: biochemical
# [1] = target: T1, PDE9A2 (Homo sapiens, UniProt O76083); assay: Phosphodiesterase enzyme screening assay, PDE9A2
# T1 construct: purchased Reaction Biology Corporation, Malvern, Pa
# Outline: (§1)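 Reaction started by adding substrate (4.0 μM cGMP) to recombinant human enzyme in HEPES pH 7.5 buffer with MgCl2, DTT and Brij; 1 h at room temperature; quenched with EDTA-containing stop buffer; product and substrate resolved electrophoretically and quantified by fluorescence relative to uninhibited controls.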
# [2] = target: T2, PDE1A (Homo sapiens, UniProt P54750); assay: Phosphodiesterase enzyme screening assay, PDE1A
# T2 construct: purchased Reaction Biology Corporation, Malvern, Pa
# Outline: as §1
# [3] = target: T3, PDE1B (Homo sapiens, UniProt Q01064); assay: Phosphodiesterase enzyme screening assay, PDE1B
# T3 construct: purchased Reaction Biology Corporation, Malvern, Pa
# Outline: as §1
# [4] = 4.0 μM cGMP substrate, 1 hour at R.T., read-out: Band (PDE9A2 IC50)
# [5] = ratio of IC50 values PDE1A / PDE9A2, value greater than 1 = greater selectivity for PDE9A2
# [6] = ratio of IC50 values PDE1B / PDE9A2, value greater than 1 = greater selectivity for PDE9A2
# [7] = Table 1, 10 concentrations, 4.0 μM cGMP substrate, 1 hour at R.T., read-out: Band (PDE9A2 IC50)
# [8] = Table 1, ratio of IC50 values, value greater than 1 indicates greater selectivity for PDE9A2
# [9] = ratio of IC50 values, PDE1A versus PDE9A2, value greater than 1 indicates greater selectivity for PDE9A2
# [10] = ratio of IC50 values, PDE1B versus PDE9A2, value greater than 1 indicates greater selectivity for PDE9A2
# [11] = IC50 band, 4.0 μM cGMP substrate, 1 hour at R.T.
# [12] = ratio of IC50 values PDE1A vs PDE9A2, value greater than 1 indicates greater selectivity for PDE9A2
# [13] = ratio of IC50 values PDE1B vs PDE9A2, value greater than 1 indicates greater selectivity for PDE9A2
# [14] = Table 2, ratio of IC50 values, value greater than 1 indicates greater selectivity for PDE9A2
# T3 sequence (Q01064 whole entry): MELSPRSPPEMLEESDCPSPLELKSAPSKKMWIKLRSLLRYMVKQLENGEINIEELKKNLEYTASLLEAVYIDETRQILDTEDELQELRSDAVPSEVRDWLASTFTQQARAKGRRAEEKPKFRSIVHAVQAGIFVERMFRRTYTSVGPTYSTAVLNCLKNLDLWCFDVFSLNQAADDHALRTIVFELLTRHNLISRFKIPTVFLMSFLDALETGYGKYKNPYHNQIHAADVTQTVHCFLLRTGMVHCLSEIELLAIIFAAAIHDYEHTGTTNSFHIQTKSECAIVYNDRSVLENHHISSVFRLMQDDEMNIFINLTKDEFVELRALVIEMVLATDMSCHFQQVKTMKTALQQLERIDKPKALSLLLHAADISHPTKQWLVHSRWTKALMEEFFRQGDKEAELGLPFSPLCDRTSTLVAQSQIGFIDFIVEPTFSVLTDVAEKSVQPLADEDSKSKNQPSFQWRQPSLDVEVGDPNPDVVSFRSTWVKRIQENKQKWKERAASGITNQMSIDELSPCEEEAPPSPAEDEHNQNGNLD
# T2 sequence (P54750 whole entry): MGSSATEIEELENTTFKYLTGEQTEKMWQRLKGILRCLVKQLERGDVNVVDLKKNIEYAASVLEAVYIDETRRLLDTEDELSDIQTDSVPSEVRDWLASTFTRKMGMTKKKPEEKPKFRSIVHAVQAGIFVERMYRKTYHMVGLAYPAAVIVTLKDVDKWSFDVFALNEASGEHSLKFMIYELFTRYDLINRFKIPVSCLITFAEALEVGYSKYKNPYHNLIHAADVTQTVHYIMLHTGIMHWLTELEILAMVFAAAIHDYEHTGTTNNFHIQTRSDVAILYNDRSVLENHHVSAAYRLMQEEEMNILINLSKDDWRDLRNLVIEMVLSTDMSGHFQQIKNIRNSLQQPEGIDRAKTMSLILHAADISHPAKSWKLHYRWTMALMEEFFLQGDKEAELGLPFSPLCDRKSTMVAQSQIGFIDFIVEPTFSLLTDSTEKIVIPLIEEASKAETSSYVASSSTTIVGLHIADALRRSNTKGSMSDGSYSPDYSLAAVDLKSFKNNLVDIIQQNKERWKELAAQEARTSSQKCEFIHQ
# T1 sequence (O76083 1-533 isoform O76083-2): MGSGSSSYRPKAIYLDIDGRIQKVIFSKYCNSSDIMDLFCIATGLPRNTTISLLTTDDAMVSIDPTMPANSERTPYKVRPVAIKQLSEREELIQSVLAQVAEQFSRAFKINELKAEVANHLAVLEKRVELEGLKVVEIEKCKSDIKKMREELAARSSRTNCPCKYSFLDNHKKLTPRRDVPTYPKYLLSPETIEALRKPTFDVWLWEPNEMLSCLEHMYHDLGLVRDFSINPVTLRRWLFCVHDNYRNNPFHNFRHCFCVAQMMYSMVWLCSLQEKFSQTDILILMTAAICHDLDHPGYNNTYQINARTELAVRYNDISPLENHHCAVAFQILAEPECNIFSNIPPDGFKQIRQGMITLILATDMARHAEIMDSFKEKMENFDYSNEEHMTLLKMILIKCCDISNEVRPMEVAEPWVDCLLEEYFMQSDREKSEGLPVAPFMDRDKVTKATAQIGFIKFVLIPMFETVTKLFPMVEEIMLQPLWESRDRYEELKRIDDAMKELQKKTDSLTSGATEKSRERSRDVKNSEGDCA
smiles,measurement,setting,value
"CC1CN(Cc2cccc(Cl)c2Cl)CC1c1nn2c(C3CCOCC3)ncc2c(=O)[nH]1 (single isomer, unassigned; (+)) [(+)-2-((3,4-trans)-1-(2,3-dichlorobenzyl)-4-methylpyrrolidin-3-yl)-7-(tetrahydro-2H-pyran-4-yl)imidazo[5,1-f][1,2,4]triazin-4(3H)-one]",IC50,[1]; [4],< 1000 nM
same,PDE1A selectivity (versus PDE9A2),[2]; [5],195
same,PDE1B selectivity (versus PDE9A2),[3]; [6],199
"CC1CN(Cc2ccc3ccccc3n2)CC1c1nn2c(C3CCOCC3)ncc2c(=O)[nH]1 (single isomer, unassigned; (-)) [(−)-2-((3,4-trans)-4-methyl-1-(quinolin-2-ylmethyl)pyrrolidi] [(−)-2-((3,4-trans)-4-methyl-1-(quinolin-2-ylmethyl)pyrrolidin-3-yl)-7-(tetrahydro-2H-pyran-4-yl)imidazo[5,1-f][1,2,4]triazin-4(3H)-one]",IC50,[1]; [7],< 1000 nM
same,PDE1A selectivity (versus PDE9A2),[2]; [8],56
same,PDE1B selectivity (versus PDE9A2),[3]; [8],48
"Cc1ccccc1-c1ncc2c(=O)[nH]c(C3CN(Cc4nc5ccccc5[nH]4)CC3C)nn12 (single isomer, unassigned; (+)) [(+)-2-((3,4-trans)-1-((1H-benzo[d]imidazol-2-yl)methyl)-4-methylpyrrolidin-3-yl)-7-(o-tolyl)imidazo[5,1-f][1,2,4]triazin-4(3H)-one]",IC50,[1]; read-out: Band (PDE9A2 IC50),< 1000 nM
same,PDE1A selectivity (versus PDE9A2),[2]; [9],1740
same,PDE1B selectivity (versus PDE9A2),[3]; [10],2990
"CC1CN(C(=O)c2ccc(C#N)cc2)CC1c1nn2c(C3CCOCC3)ncc2c(=O)[nH]1 (single isomer, unassigned; (-)) [(−)-4-((3,4-trans)-3-methyl-4-(4-oxo-7-(tetrahydro-2H-pyran-4-yl)-3,4-dihydroimidazo[5,1-f][1,2,4]triazin-2-yl)pyrrolidine-1-carbonyl)benzonitrile]",IC50,[1]; [7],< 1000 nM
same,PDE1A selectivity (versus PDE9A2),[2]; [8],14
same,PDE1B selectivity (versus PDE9A2),[3]; [8],21
"CC1CN(Cc2ccc(F)cc2)CC1c1nn2c(C3CCCC3)ncc2c(=O)[nH]1 (single isomer, unassigned; (+)) [(+)-7-cyclopentyl-2-((3,4-trans)-1-(4-fluorobenzyl)-4-methylpyrrolidin-3-yl)imidazo[5,1-f][1,2,4]triazin-4(3H)-one]",IC50,[1]; read-out: Band (PDE9A2 IC50),< 1000 nM
same,PDE1A selectivity (versus PDE9A2),[2]; [9],41
same,PDE1B selectivity (versus PDE9A2),[3]; [10],104
"CC1CN(Cc2ccccc2)CC1c1nn2c(C3CCOCC3)ncc2c(=O)[nH]1 (single isomer, unassigned; (-)) [(−)-2-((3,4-trans)-1-benzyl-4-methylpyrrolidin-3-yl)-7-(tetr] [(−)-2-((3,4-trans)-1-benzyl-4-methylpyrrolidin-3-yl)-7-(tetrahydro-2H-pyran-4-yl)imidazo[1,5-f][1,2,4]triazin-4(3H)-one]",IC50,[1]; [7],< 1000 nM
same,PDE1A selectivity (versus PDE9A2),[2]; [8],465
same,PDE1B selectivity (versus PDE9A2),[3]; [8],550
"Cc1cc(F)ccc1-c1ncc2c(=O)[nH]c(C3CN(Cc4ccc(F)cc4)CC3C)nn12 (single isomer, unassigned; (+)) [(+)-7-(4-fluoro-2-methylphenyl)-2-((3,4-trans)-1-(4-fluorobenzyl)-4-methylpyrrolidin-3-yl)imidazo[5,1-f][1,2,4]triazin-4(3H)-one]",IC50,[1]; [11],< 1000 nM
same,PDE1A selectivity (versus PDE9A2),[2]; [12],345
same,PDE1B selectivity (versus PDE9A2),[3]; [13],493
"CC1CN(Cc2nc3ccccc3[nH]2)CC1c1nn2c(C3CCOCC3)ncc2c(=O)[nH]1 (single isomer, unassigned; (-)) [(−)-2-((3,4-trans)-1-((1H-benzo[d]imidazol-2-yl)methyl)-4-methylpyrrolidin-3-yl)-7-(tetrahydro-2H-pyran-4-yl)imidazo[5,1-f][1,2,4]triazin-4(3H)-one]",IC50,[1]; [7],< 1000 nM
same,PDE1A selectivity (versus PDE9A2),[2]; [8],433
same,PDE1B selectivity (versus PDE9A2),[3]; [8],540
"Cc1cc(F)ccc1-c1ncc2c(=O)[nH]c(C3CN(Cc4nc5ccccc5[nH]4)CC3C)nn12 (single isomer, unassigned; (+)) [(+)-2-((3,4-trans)-1-((1H-benzo[d]imidazol-2-yl)methyl)-4-methylpyrrolidin-3-yl)-7-(4-fluoro-2-methylphenyl)imidazo[5,1-f][1,2,4]triazin-4(3H)-one]",IC50,[1]; [11],< 1000 nM
same,PDE1A selectivity (versus PDE9A2),[2]; [12],1438
same,PDE1B selectivity (versus PDE9A2),[3]; [13],2500
"Cc1ncc(CN2CC(C)C(c3nn4c(C5CCOCC5)ncc4c(=O)[nH]3)C2)s1 (single isomer, unassigned; (+)) [(+)-2-((3,4-trans)-4-methyl-1-((2-methylthiazol-5-yl)methyl)pyrrolidin-3-yl)-7-(tetrahydro-2H-pyran-4-yl)imidazo[5,1-f][1,2,4]triazin-4(3H)-one]",IC50,[1]; [7],< 1000 nM
same,PDE1A selectivity (versus PDE9A2),[2]; [8],129
same,PDE1B selectivity (versus PDE9A2),[3]; [8],243
"CC1CN(Cc2cn3ccccc3n2)CC1c1nn2c(-c3ccc(F)cc3)ncc2c(=O)[nH]1 (single isomer, unassigned; (+)) [(+)-7-(4-fluorophenyl)-2-((3,4-trans)-1-(imidazo[1,2-a]pyridin-2-ylmethyl)-4-methylpyrrolidin-3-yl)imidazo[5,1-f][1,2,4]triazin-4(3H)-one]",IC50,[1]; read-out: Band (PDE9A2 IC50),< 1000 nM
same,PDE1A selectivity (versus PDE9A2),[2]; [9],120
same,PDE1B selectivity (versus PDE9A2),[3]; [10],209
"CC1CN(Cc2cc(F)cc(F)c2)CC1c1nn2c(C3CCOCC3)ncc2c(=O)[nH]1 (single isomer, unassigned; (+)) [(+)-2-((3,4-trans)-1-(3,5-difluorobenzyl)-4-methylpyrrolidin-3-yl)-7-(tetrahydro-2H-pyran-4-yl)imidazo[1,5-f][1,2,4]triazin-4(3H)-one]",IC50,[1]; [7],< 1000 nM
same,PDE1A selectivity (versus PDE9A2),[2]; [8],1710
same,PDE1B selectivity (versus PDE9A2),[3]; [8],1043
"Cc1ccncc1-c1ncc2c(=O)[nH]c(C3CN(Cc4nc5ccccn5n4)CC3C)nn12 (single isomer, unassigned; (+)) [(+)-2-((3,4-trans)-1-([1,2,4]triazolo[1,5-a]pyridin-2-ylmethyl)-4-methylpyrrolidin-3-yl)-7-(4-methylpyridin-3-yl)imidazo[5,1-f][1,2,4]triazin-4(3H)-one]",IC50,[1]; read-out: Band (PDE9A2 IC50),< 1000 nM
same,PDE1A selectivity (versus PDE9A2),[2]; [9],56
same,PDE1B selectivity (versus PDE9A2),[3]; [10],115
"CC1CN(Cc2ccc(Cl)cn2)CC1c1nn2c(C3CCOCC3)ncc2c(=O)[nH]1 (single isomer, unassigned; (+)) [(+)-2-((3,4-trans)-1-((5-chloropyridin-2-yl)methyl)-4-methylpyrrolidin-3-yl)-7-(tetrahydro-2H-pyran-4-yl)imidazo[5,1-f][1,2,4]triazin-4(3H)-one]",IC50,[1]; [4],< 1000 nM
same,PDE1A selectivity (versus PDE9A2),[2]; [5],107
same,PDE1B selectivity (versus PDE9A2),[3]; [6],184
"Cc1cc(F)c(F)cc1-c1ncc2c(=O)[nH]c(C3CN(Cc4ccc(F)cc4)CC3C)nn12 (single isomer, unassigned; (+)) [(+)-7-(4,5-difluoro-2-methylphenyl)-2-((3,4-trans)-1-(4-fluorobenzyl)-4-methylpyrrolidin-3-yl)imidazo[5,1-f][1,2,4]triazin-4(3H)-one]",IC50,[1]; read-out: Band (PDE9A2 IC50),< 1000 nM
same,PDE1A selectivity (versus PDE9A2),[2]; [9],232
same,PDE1B selectivity (versus PDE9A2),[3]; [10],179
"COc1ccnc(CN2CC(C)C(c3nn4c(C5CCOCC5)ncc4c(=O)[nH]3)C2)c1 (single isomer, unassigned; (+)) [(+)-2-((3,4-trans)-1-((4-methoxypyridin-2-yl)methyl)-4-methylpyrrolidin-3-yl)-7-(tetrahydro-2H-pyran-4-yl)imidazo[5,1-f][1,2,4]triazin-4(3H)-one]",IC50,"[1]; Table 3, 4.0 μM cGMP substrate, 1 hour at R.T., read-out: Band (PDE9A2 IC50)",< 1000 nM
same,PDE1A selectivity (versus PDE9A2),"[2]; ratio of IC50 values, PDE1A versus PDE9A2, value greater than 1 = greater selectivity for PDE9A2",466
same,PDE1B selectivity (versus PDE9A2),"[3]; ratio of IC50 values, PDE1B versus PDE9A2, value greater than 1 = greater selectivity for PDE9A2",456
"CC1CN(Cc2nccc(N(C)C)n2)CC1c1nn2c(C3CCOCC3)ncc2c(=O)[nH]1 (single isomer, unassigned; (+)) [(+)-2-((3,4-trans)-1-((4-(dimethylamino)pyrimidin-2-yl)methyl)-4-methylpyrrolidin-3-yl)-7-(tetrahydro-2H-pyran-4-yl)imidazo[5,1-f][1,2,4]triazin-4(3H)-one]",IC50,"[1]; Table 2, 10 concentrations, 4.0 μM cGMP substrate, 1 hour at R.T., read-out: Band (PDE9A2 IC50)",< 1000 nM
same,PDE1A selectivity (versus PDE9A2),[2]; [14],117
same,PDE1B selectivity (versus PDE9A2),[3]; [14],177

# From patent publication US9969742B2, “Imidazotriazinone compounds” (Ironwood Pharmaceuticals, Inc., priority 2012, dated 2018)
